The text below walks through data of PMC10817512, “OSMAC-Based Discovery and Biosynthetic Gene Clusters Analysis of Secondary Metabolites from Marine-Derived Streptomyces globisporus SCSIO LCY30” (Marine Drugs, 2023).

Assay [1] has as its system Staphylococcus simulans AKA1. As to the kind of experiment: Antibacterial MIC, CLSI microdilution. Format: cell-based. On the technique in general: Broth dilution looks for growth in wells or tubes with falling amounts of substance.
The subject of a further assay is Bacillus subtilis BS01. As to the kind of experiment: Antibacterial MIC, CLSI microdilution. Format: cell-based. Here is the method:
(§1) An antibacterial activity test of compounds 1–3 was conducted according to a standard protocol provided by the Clinical and Laboratory Standards Institute (CLSI). Sixteen bacterial strains were used, including Staphylococcus aureus ATCC 29213, Staphylococcus aureus 16339, Staphylococcus aureus 1862, Staphylococcus aureus 3090, Staphylococcus aureus 991, Staphylococcus aureus 669, Staphylococcus aureus 745324, Staphylococcus aureus 16162, Staphylococcus aureus (cfr) GDE4P037P, Enterococcus faecalis ATCC 29212, Enterococcus faecalis 36950, Micrococcus luteus ML01, MRSA, Bacillus subtilis BS01, Enterococcus gallinarum 5F52C, and Enterococcus faecium 36711. Compounds 1–3 were dissolved in DMSO at a concentration of 3.2 mg/mL, and vancomycin and ampicilin were used as antibacterial control agents. […] All the assays were carried out in triplicate.

Assay [2] relates to Enterococcus faecalis 36950. As to the kind of experiment: Antibacterial MIC, CLSI microdilution. Format: cell-based. The protocol: as §1
Assay [3] has as its system Enterococcus faecalis ATCC 29212. Briefly: Antibacterial MIC, CLSI microdilution. Format: cell-based. Here is the method: as §1
Assay [4] relates to Enterococcus faecium 36711. As to the kind of experiment: Antibacterial MIC, CLSI microdilution. Format: cell-based. Here is the method: as §1
The test system of assay [5] is Enterococcus gallinarum 5F52C. As to the kind of experiment: Antibacterial MIC, CLSI microdilution. Format: cell-based. Here is the method: as §1
The next assay deals with Micrococcus luteus ML01. As to the kind of experiment: Antibacterial MIC, CLSI microdilution. Format: cell-based. The protocol:
as §1

Assay [6] concerns Staphylococcus aureus (cfr) GDE4P037P. Briefly: Antibacterial MIC, CLSI microdilution. Format: cell-based. Here is the method: as §1
For assay [7], the system named is Staphylococcus aureus 16162. Briefly: Antibacterial MIC, CLSI microdilution. Format: cell-based. The protocol:
as §1

The subject of assay [8] is Staphylococcus aureus 16339. As to the kind of experiment: Antibacterial MIC, CLSI microdilution. Format: cell-based. The protocol:
as §1

For assay [9], the system named is Staphylococcus aureus 1862. Briefly: Antibacterial MIC, CLSI microdilution. Format: cell-based. Here is the method:
as §1

Assay [10] concerns Staphylococcus aureus 3090. As to the kind of experiment: Antibacterial MIC, CLSI microdilution. Format: cell-based. The protocol: as §1
Assay [11] concerns Staphylococcus aureus 669. Briefly: Antibacterial MIC, CLSI microdilution. Format: cell-based. Here is the method: as §1
The subject of assay [12] is Staphylococcus aureus 745324. As to the kind of experiment: Antibacterial MIC, CLSI microdilution. Format: cell-based. Here is the method: as §1
Assay [13] has as its system Staphylococcus aureus 991. As to the kind of experiment: Antibacterial MIC, CLSI microdilution. Format: cell-based. The protocol: as §1
The test system of assay [14] is Staphylococcus aureus ATCC 29213. As to the kind of experiment: Antibacterial MIC, CLSI microdilution. Format: cell-based. Here is the method:
as §1

The next assay has as its system MRSA. As to the kind of experiment: Antibacterial MIC, CLSI microdilution. Format: cell-based, Staphylococcus aureus. Here is the method: as §1
Assay [15] has as its system cervical cancer cell line Hela. As to the kind of experiment: Cell growth inhibitory (cytotoxic) activity assay. Format: cell-based, human. An excerpt: (§2) The cell growth inhibitory activities of compounds 1–3 against fourteen different human cell lines (human liver cell line LX-2; hepatocellular cancer line HEPG2; human intestinal epithelial cell line NCM460; colorectal cancer cell lines HCT116 and SW480; normal human breast cell line MCF-10A; breast cancer cell line MCF7; triple-negative breast cancer cell lines MDA-MB-231, MDA-MB-468, and Bt-549; human umbilical vein endothelial cell line; lung cancer cell line A549; cervical cancer cell line Hela; and cholangiocarcinoma cell line RBE) were tested according to the previously published methods. SPSS software version 22.0 was used to test the IC50 values. Cisplatin and adriamycin were used as positive control agents, and all the experiments were carried out in triplicate.

Assay [16] concerns cholangiocarcinoma cell line RBE. As to the kind of experiment: Cell growth inhibitory (cytotoxic) activity assay. Format: cell-based, human.
From the text: as §2

Assay [17] deals with colorectal cancer cell line HCT116. Briefly: Cell growth inhibitory (cytotoxic) activity assay. Format: cell-based, human.
From the text: as §2

Assay [18] deals with colorectal cancer cell line SW480. As to the kind of experiment: Cell growth inhibitory (cytotoxic) activity assay. Format: cell-based, human. To be noted: SW480 (colorectal cancer).
From the text: as §2

The subject of assay [19] is hepatocellular cancer line HEPG2. Briefly: Cell growth inhibitory (cytotoxic) activity assay. Format: cell-based, human.
From the text: as §2

In assay [20] the test system is lung cancer cell line A549. As to the kind of experiment: Cell growth inhibitory (cytotoxic) activity assay. Format: cell-based, human.
From the text: as §2

For assay [21], the system named is triple-negative breast cancer cell line Bt-549. Briefly: Cell growth inhibitory (cytotoxic) activity assay. Format: cell-based, human.
From the text: as §2

For assay [22], the system named is triple-negative breast cancer cell line MDA-MB-231. Briefly: Cell growth inhibitory (cytotoxic) activity assay. Format: cell-based, human.
From the text: as §2

Assay [23] deals with triple-negative breast cancer cell line MDA-MB-468. Briefly: Cell growth inhibitory (cytotoxic) activity assay. Format: cell-based, human.
From the text: as §2

Assay [24] concerns breast cancer cell line MCF7. As to the kind of experiment: Cell growth inhibitory (cytotoxic) activity assay. Format: cell-based, human. An excerpt:
SPSS software version 22.0 was used to test the IC50 values.

Assay [25] deals with human intestinal epithelial cell line NCM460. As to the kind of experiment: Cell growth inhibitory (cytotoxic) activity assay. To be noted: NCM460 (normal intestinal epithelial cell line). Format: cell-based.
From the text: as §2

The subject of assay [26] is human liver cell line LX-2. Briefly: Cell growth inhibitory (cytotoxic) activity assay. To be noted: LX-2 (human liver cell line). Format: cell-based.
From the text: as §2

Assay [27] concerns human umbilical vein endothelial cell line HUVEC. As to the kind of experiment: Cell growth inhibitory (cytotoxic) activity assay. Format: cell-based.
From the text: as §2

For assay [28], the system named is normal human breast cell line MCF-10A. Briefly: Cell growth inhibitory (cytotoxic) activity assay. To be noted: MCF-10A (normal human breast cell line). Format: cell-based.
From the text: as §2

The test system of the next assay is Bacillus subtilis. The arrangement: method as in PMID 18396903. To be noted: ref [35]; cited from earlier work.

Values after ≈ are worked out from the molar mass of the structure shown. Some results are limits rather than exact numbers.

For `CN[C@H](CC(C)C)C(=O)N[C@H]1C(=O)N[C@@H](CC(N)=O)C(=O)N[C@H]2C(=O)N[C@H]3C(=O)N[C@H](C(=O)N[C@H](C(=O)O)c4cc(O)cc(O)c4-c4cc3ccc4O)[C@H](O)c3ccc(c(Cl)c3)Oc3cc2cc(c3O[C@@H]2O[C@H](CO)[C@@H](O)[C@H](O)[C@H]2O[C@H]2C[C@](C)(N)[C@H](O)[C@H](C)O2)Oc2ccc(cc2Cl)[C@H]1O` [Vancomycin, reference compound], the MIC is 0.5 µg/mL (≈ 0.345 µM) in [1] (Staphylococcus simulans, AKA1); 0.13 µg/mL (≈ 0.0897 µM) against Bacillus subtilis BS01 (Bacillus subtilis, BS01); 0.5 µg/mL (≈ 0.345 µM) in [2] (Enterococcus faecalis, 36950); 2 µg/mL (≈ 1.38 µM) in [3] (Enterococcus faecalis, ATCC29212); greater than 64 µg/mL in assay [4] (Enterococcus faecium, 36711); 4 µg/mL (≈ 2.76 µM) in [5] (Enterococcus gallinarum, GALLINARUM). Also, the MIC against Micrococcus luteus ML01 (Micrococcus luteus, ML01) amounted to 0.13 µg/mL (≈ 0.0897 µM); in assay [6] (Staphylococcus aureus), 1 µg/mL (≈ 0.69 µM); in [7] (Staphylococcus aureus, 16162), 0.5 µg/mL (≈ 0.345 µM); in assay [8] (Staphylococcus aureus, 16339), 1 µg/mL (≈ 0.69 µM); in assay [9] (Staphylococcus aureus, 1862) it was 1 µg/mL (≈ 0.69 µM); in [10] (Staphylococcus aureus, 3090) it was 0.5 µg/mL (≈ 0.345 µM). Further, the MIC in [11] (Staphylococcus aureus, 669) is 1 µg/mL (≈ 0.69 µM); in assay [12] (Staphylococcus aureus, 745324), 1 µg/mL (≈ 0.69 µM); in [13] (Staphylococcus aureus, 991), 0.5 µg/mL (≈ 0.345 µM); in [14] (Staphylococcus aureus, ATCC29213) it was 1 µg/mL (≈ 0.69 µM); in the assay with MRSA (Staphylococcus aureus) it was 0.5 µg/mL (≈ 0.345 µM).

As for mayamycin A [Mayamycin (1)], the MIC in assay [1] (Staphylococcus simulans AKA1, 37 °C, 16–18 h) stood at 32 µg/mL; against Bacillus subtilis BS01 (Bacillus subtilis BS01, 37 °C, 16–18 h), 8 µg/mL; in assay [2] (Enterococcus faecalis 36950, 37 °C, 16–18 h), 8 µg/mL; in assay [3] (Enterococcus faecalis ATCC 29212, 37 °C, 16–18 h), 32 µg/mL; in assay [4] (Enterococcus faecium 36711, 37 °C, 16–18 h) it was 16 µg/mL; in assay [5] (Enterococcus gallinarum 5F52C, 37 °C, 16–18 h), 32 µg/mL. The MIC with Micrococcus luteus ML01 (Micrococcus luteus ML01, 37 °C, 16–18 h) is 1 µg/mL; in assay [6] (Staphylococcus aureus (cfr) GDE4P037P, 37 °C, 16–18 h), 8 µg/mL; in assay [7] (Staphylococcus aureus 16162, 37 °C, 16–18 h), 16 µg/mL; in assay [8] (Staphylococcus aureus 16339, 37 °C, 16–18 h), 16 µg/mL; in assay [9] (Staphylococcus aureus 1862, 37 °C, 16–18 h), 16 µg/mL; in assay [10] (Staphylococcus aureus 3090, 37 °C, 16–18 h) it was 16 µg/mL. Moreover, the MIC in assay [11] (Staphylococcus aureus 669, 37 °C, 16–18 h) was 16 µg/mL; in [12] (Staphylococcus aureus 745324, 37 °C, 16–18 h) it was 16 µg/mL; in assay [13] (Staphylococcus aureus 991, 37 °C, 16–18 h) it was 16 µg/mL; in [14] (Staphylococcus aureus ATCC 29213, 37 °C, 16–18 h) it was 16 µg/mL; against MRSA (37 °C, 16–18 h) it was 8 µg/mL. Moreover, the IC50 in assay [15] turned out to be 910 nM; in [16], 1050 nM; in [17], 1080 nM; in assay [18] it was 1050 nM; in assay [19], 2120 nM; in [20], 1650 nM. For the same molecule, the IC50 in [21] (Bt-549 (TNBC)) was 1880 nM; in assay [22] (MDA-MB-231 (TNBC)) it was 600 nM; in assay [23] (MDA-MB-468 (TNBC)), 2220 nM; in [24] it was 2100 nM; in assay [25], 2640 nM; in assay [26], 2310 nM. Further, the values for the IC50 in assay [27] and in assay [28] were 1680 nM and 5980 nM, respectively. Besides, the selective index in [21] (Bt-549 versus normal breast cells) was found to be 3.18; in assay [22] (MDA-MB-231 versus normal breast cells), 9.97; in assay [23] (MDA-MB-468 versus normal breast cells) it was 2.69.

Consider streptophenazine H, for which the MIC with Bacillus subtilis is 15.6 µg/mL.

Broadly, the MIC is the least concentration at which growth counts as inhibited. The IC50 is the concentration that inhibits the measured activity by half. Lower therefore signals greater potency in that assay.
